This is an account of results in patent publication US11926578B1, “8-(4-nitroxybenzylideneamino)naphthalene-1,3-disulfonic acid as an antioxidant compound” (KING FAISAL UNIVERSITY, priority 2023, dated 2024).

This experiment in a line: DPPH radical scavenging antioxidant test (absorbance at 517 nm). It is filed as biochemical. Conditions: radical scavenging inhibition of DPPH, 0.2 mL DPPH (0.75 mM), compound 3 μM in ethanol, 30 min in the dark. The procedure:
The antioxidant properties of the 8-(4-nitroxybenzylideneamino)naphthalene-1,3-disulfonic acid were studied by adding 0.2 mL DPPH (0.75 mM)) to compound 8-(4-nitroxybenzylideneamino)naphthalene-1,3-disulfonic acid (III) (3 μM) in ethanol. After 30 min of incubation in the dark, the absorbance was read against a blank at 517 nm. Ascorbic acid (vitamin C) was used as standard antioxidants (positive control). A blank sample was prepared by 0.2 ml of DPPH in 3 ml ethanol. A negative control sample was run using ethanol instead of the sample. The radical scavenging inhibition was calculated using the following equation: […]
For orientation: The DPPH test is a chemical assay of radical scavenging.

By Inhibition is commonly meant how much of the control response was suppressed. A lower Inhibition goes with little suppression.

Regarding `O=C1O[C@H]([C@@H](O)CO)C(O)=C1O` [vit c, Ascorbic acid], the Inhibition was found to be 74%.
